The target in assay [1] is T1, KPC-2 (Klebsiella pneumoniae, UniProt Q9F663). Format: biochemical.
In assay [2] the target is T1, KPC-2. It is filed as biochemical. The source holds these as a separate data set.

T1 sequence (Q9F663 25-293 limits assumed): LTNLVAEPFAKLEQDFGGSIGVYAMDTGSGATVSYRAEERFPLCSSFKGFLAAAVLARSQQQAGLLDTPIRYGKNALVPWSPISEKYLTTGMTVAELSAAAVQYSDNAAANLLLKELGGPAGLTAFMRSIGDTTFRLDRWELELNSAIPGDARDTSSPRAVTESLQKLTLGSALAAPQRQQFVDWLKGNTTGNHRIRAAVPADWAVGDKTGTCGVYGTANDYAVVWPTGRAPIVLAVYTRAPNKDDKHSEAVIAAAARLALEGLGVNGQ

With `C[C@@H](O)[C@H]1C(=O)N2C(C(=O)O)=C(S[C@@H]3CN[C@H](C(=O)N(C)C)C3)[C@H](C)[C@H]12` [meropenem], at KPC-2 [1], the “hydrolysis progress curves at 300 nm, 30 nM purified enzyme, 50 μM meropenem” value is “Compared with KPC-2, catalytic efficiencies of KPC-87 for nitrocefin and meropenem decreased sharply”.

For the molecule `O=C(Cc1cccs1)N[C@@H]1C(=O)N2C(C(=O)O)=C(/C=C/c3ccc([N+](=O)[O-])cc3[N+](=O)[O-])CS[C@H]12` [nitrocefin], the “steady-state hydrolysis kinetics (Michaelis-Menten), purified enzyme” value on KPC-2 [2] was “Compared with KPC-2, catalytic efficiencies of KPC-87 for nitrocefin and meropenem decreased sharply”.

Source of the values: article PMC12125794 (Annals of Clinical Microbiology and Antimicrobials, 2025).
